We go through 21 molecules from PubChem BioAssay AID256 (DTP/NCI, 2004).

This assay has as its system CD2F1 mice, L1210 leukemia ip, survival T/C. Briefly: NCI In Vivo Anticancer Drug Screen. Data for tumor model L1210 Leukemia (intraperitoneal) in CD2F1 (CDF1) mice. The settings on record: higher = longer survival. A digest of the protocol: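 Ratio T/C, where T is the treated-group value and C the vehicle-dosed control value, from mice implanted with a transplantable tumor.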

Where [1] appears, read: endpoint: mean survival time, dose: 25.0 mg/kg/injection, schedule: Q01DX009 (ip), vehicle: saline with Tween-80.
Where [2] appears, read: endpoint: mean survival time, dose: 50.0 mg/kg/injection, schedule: Q01DX009 (ip), vehicle: saline with Tween-80.
[3] abbreviates: endpoint: mean survival time, dose: 100.0 mg/kg/injection, schedule: Q01DX009 (ip), vehicle: saline with Tween-80.
Where [4] appears, read: endpoint: mean survival time, dose: 100.0 mg/kg/injection, schedule: Q04DX003 (ip), vehicle: saline with Tween-80.
[5] abbreviates: endpoint: mean survival time, dose: 100.0 mg/kg/injection, schedule: Q04DX003 (ip), vehicle: saline.
Setting [6] is: endpoint: mean survival time, dose: 200.0 mg/kg/injection, schedule: Q04DX003 (ip), vehicle: saline with Tween-80.
[7] abbreviates: endpoint: mean survival time, dose: 200.0 mg/kg/injection, schedule: Q04DX003 (ip), vehicle: saline.
Where [8] appears, read: endpoint: mean survival time, dose: 400.0 mg/kg/injection, schedule: Q04DX003 (ip), vehicle: saline.
Where [9] appears, read: endpoint: mean survival time, dose: 400.0 mg/kg/injection, schedule: Q04DX003 (ip), vehicle: saline with Tween-80.
Setting [10] is: endpoint: mean survival time, dose: 100.0 mg/kg/injection, schedule: Q04DX002 (ip), vehicle: saline with Tween-80.
Where [11] appears, read: endpoint: mean survival time, dose: 200.0 mg/kg/injection, schedule: Q01DX009 (ip), vehicle: saline with Tween-80.
Setting [12] is: endpoint: mean survival time, dose: 400.0 mg/kg/injection, schedule: Q01DX009 (ip), vehicle: saline with Tween-80.
Where [13] appears, read: endpoint: mean survival time, dose: 12.5 mg/kg/injection, schedule: Q01DX009 (ip), vehicle: saline with Tween-80.
The mark [14] stands for this setting: endpoint: mean survival time, dose: 200.0 mg/kg/injection, schedule: Q04DX002 (ip), vehicle: saline with Tween-80.
Where [15] appears, read: endpoint: mean survival time, dose: 100.0 mg/kg/injection, schedule: Q04DX003 (ip), vehicle: Klucel (hydroxypropylcellulose) (HPC).

Molecules are shown by their SMILES. Several values for one entry are separate records, joined by “and”; a condition that tells them apart may be missing. Equal values may be shown once. Toxic doses and inconclusive results are not listed.

With `Cn1c(=O)[nH]c2c(nc(-c3ccccc3)n2C)c1=O`, the T/C is 87 % of control (endpoint: mean survival time, dose: 12.5 mg/kg/injection, schedule: Q01DX005 (ip), vehicle: other); 96 % of control (endpoint: mean survival time, dose: 25.0 mg/kg/injection, schedule: Q01DX005 (ip), vehicle: other); 89 % of control (endpoint: mean survival time, dose: 50.0 mg/kg/injection, schedule: Q01DX005 (ip), vehicle: other); 94 % of control (endpoint: mean survival time, dose: 100.0 mg/kg/injection, schedule: Q01DX005 (ip), vehicle: other).

Take `Cc1nc2ccccc2n1C`: the T/C by setting is: under setting [1], 105 % of control; under setting [2], 96 % of control; under setting [3], 104 % of control.

With `O=C(O)COc1cccc(OCC(=O)O)c1`, the T/C is, setting by setting: under setting [4], 100 % of control; under setting [5], 96 % of control; under setting [6], 91 % of control; under setting [7], 94 % of control; under setting [8], 100 % of control.

Turning to `CCOP(=O)(OCC)C1=C(SCC)C(F)(F)C(F)(F)C1(F)F`, the T/C (endpoint: mean survival time, dose: 75.0 mg/kg/injection, schedule: Q01DX001 (ip), vehicle: other) was 104 % of control.

With `CCOC(=O)C(C(C)=O)C(=O)/C=C/c1ccccc1` (centres undefined), the T/C under setting [4] is 98 % of control, the T/C under setting [6] was 103 % of control and the T/C under setting [9] is 97 % of control.

As to `O=P(CP(c1ccccc1)c1ccccc1)(c1ccccc1)c1ccccc1`, the T/C is 96 % of control (endpoint: mean survival time, dose: 25.0 mg/kg/injection, schedule: Q04DX002 (ip), vehicle: saline with Tween-80); 92 % of control (endpoint: mean survival time, dose: 50.0 mg/kg/injection, schedule: Q04DX002 (ip), vehicle: saline with Tween-80); 92 % of control under setting [10].

In the case of `O=C(Oc1cccc(OC(=O)c2ccccc2)c1)c1ccccc1`, the T/C is 100 % of control under setting [3], 97 % of control under setting [11] and 95 % of control under setting [12].

For `COc1cc(N)ccc1NC(=O)c1ccccc1`, the T/C reads like this: (endpoint: mean survival time, dose: 6.25 mg/kg/injection, schedule: Q01DX009 (ip), vehicle: saline with Tween-80) 94 % of control; under setting [13], 94 % of control and 100 % of control; under setting [1], 93 % of control and 105 % of control.

As for `NC(=O)c1ccc[n+](CCc2c[nH]c3ccccc23)c1`, the T/C (endpoint: mean survival time, dose: 18.75 mg/kg/injection, schedule: Q01DX009 (ip), vehicle: saline with Tween-80) is 101 % of control; the T/C (endpoint: mean survival time, dose: 37.5 mg/kg/injection, schedule: Q01DX009 (ip), vehicle: saline with Tween-80) was 92 % of control; the T/C (endpoint: mean survival time, dose: 75.0 mg/kg/injection, schedule: Q01DX009 (ip), vehicle: saline with Tween-80) is 103 % of control; the T/C (endpoint: mean survival time, dose: 75.0 mg/kg/injection, schedule: Q04DX003 (ip), vehicle: saline with Tween-80) was 88 % of control.

As for `CCCCCCCCCCCCCCOc1ccccc1Cl`, the T/C under setting [10] is 101 % of control; the T/C under setting [14] was 101 % of control; the T/C (endpoint: mean survival time, dose: 400.0 mg/kg/injection, schedule: Q04DX002 (ip), vehicle: saline with Tween-80) is 90 % of control.

For the molecule `O=[N+]([O-])c1cc(S(=O)(=O)c2ccc(/C=C/c3ccc4c(c3)OCO4)c([N+](=O)[O-])c2)ccc1/C=C/c1ccc2c(c1)OCO2`, the T/C reads like this: under setting [3], 95 % of control; under setting [11], 88 % of control; under setting [12], 93 % of control.

On to `COCCCNC(=O)C1=CCCN(C)C1`, for which the T/C by setting is: under setting [5], 95 % of control; under setting [7], 96 % of control; under setting [8], 94 % of control.

Regarding `O=S1(=O)CS(=O)(=O)OCCO1`, the T/C is, setting by setting: (endpoint: median survival time, dose: 6.25 mg/kg/injection, schedule: Q01DX009 (oral), vehicle: Klucel (hydroxypropylcellulose) (HPC)) 112 % of control; (endpoint: median survival time, dose: 12.5 mg/kg/injection, schedule: Q01DX001 (oral), vehicle: Klucel (hydroxypropylcellulose) (HPC)) 101 % of control; (endpoint: median survival time, dose: 22.0 mg/kg/injection, schedule: Q06HX002 (oral), vehicle: Klucel (hydroxypropylcellulose) (HPC)) 113 % of control; (endpoint: median survival time, dose: 25.0 mg/kg/injection, schedule: Q01DX001 (oral), vehicle: Klucel (hydroxypropylcellulose) (HPC)) 112 % of control; (endpoint: median survival time, dose: 25.0 mg/kg/injection, schedule: Q01DX009 (oral), vehicle: Klucel (hydroxypropylcellulose) (HPC)) 213 % of control; (endpoint: median survival time, dose: 33.0 mg/kg/injection, schedule: Q01DX001 (oral), vehicle: Klucel (hydroxypropylcellulose) (HPC)) 117 % of control. The T/C by setting is: (endpoint: median survival time, dose: 33.0 mg/kg/injection, schedule: Q01DX005 (oral), vehicle: Klucel (hydroxypropylcellulose) (HPC)) 103 % of control; (endpoint: median survival time, dose: 33.0 mg/kg/injection, schedule: Q06HX002 (oral), vehicle: Klucel (hydroxypropylcellulose) (HPC)) 117 % of control; (endpoint: median survival time, dose: 49.5 mg/kg/injection, schedule: Q01DX001 (oral), vehicle: Klucel (hydroxypropylcellulose) (HPC)) 123 % of control; (endpoint: median survival time, dose: 50.0 mg/kg/injection, schedule: Q01DX001 (oral), vehicle: Klucel (hydroxypropylcellulose) (HPC)) 119 % of control; (endpoint: median survival time, dose: 50.0 mg/kg/injection, schedule: Q01DX009 (oral), vehicle: Klucel (hydroxypropylcellulose) (HPC)) 178 % of control and 337 % of control; (endpoint: median survival time, dose: 74.2 mg/kg/injection, schedule: Q01DX005 (oral), vehicle: Klucel (hydroxypropylcellulose) (HPC)) 185 % of control. Moreover, the T/C by setting is: (endpoint: median survival time, dose: 100.0 mg/kg/injection, schedule: Q01DX001 (oral), vehicle: Klucel (hydroxypropylcellulose) (HPC)) 124 % of control; (endpoint: median survival time, dose: 100.0 mg/kg/injection, schedule: Q01DX009 (oral), vehicle: Klucel (hydroxypropylcellulose) (HPC)) 238 % of control; (endpoint: median survival time, dose: 111.2 mg/kg/injection, schedule: Q01DX005 (oral), vehicle: Klucel (hydroxypropylcellulose) (HPC)) 212 % of control; (endpoint: median survival time, dose: 112.5 mg/kg/injection, schedule: Q01DX001 (oral), vehicle: Klucel (hydroxypropylcellulose) (HPC)) 235 % of control; (endpoint: median survival time, dose: 166.8 mg/kg/injection, schedule: Q01DX001 (oral), vehicle: Klucel (hydroxypropylcellulose) (HPC)) 160 % of control; (endpoint: median survival time, dose: 166.8 mg/kg/injection, schedule: Q01DX005 (oral), vehicle: Klucel (hydroxypropylcellulose) (HPC)) 272 % of control. For the same molecule, the T/C was 178 % of control (endpoint: median survival time, dose: 200.0 mg/kg/injection, schedule: Q01DX001 (oral), vehicle: Klucel (hydroxypropylcellulose) (HPC)) and 225 % of control (endpoint: median survival time, dose: 250.0 mg/kg/injection, schedule: Q01DX001 (oral), vehicle: Klucel (hydroxypropylcellulose) (HPC)).

Regarding `O=[N+]([O-])c1cccc(Cc2nc3ccccc3nc2-c2ccccc2)c1`, the T/C was 94 % of control (endpoint: mean survival time, dose: 100.0 mg/kg/injection, schedule: Q01DX001 (ip), vehicle: saline with Tween-80) and 91 % of control (endpoint: mean survival time, dose: 400.0 mg/kg/injection, schedule: Q01DX001 (ip), vehicle: saline with Tween-80).

`CC(=O)OCc1cc(C(C)(C)C)c(O)c(C(C)(C)C)c1`: the T/C runs as follows: under setting [15], 101 % of control; (endpoint: mean survival time, dose: 200.0 mg/kg/injection, schedule: Q04DX003 (ip), vehicle: Klucel (hydroxypropylcellulose) (HPC)) 116 % of control; (endpoint: mean survival time, dose: 400.0 mg/kg/injection, schedule: Q04DX003 (ip), vehicle: Klucel (hydroxypropylcellulose) (HPC)) 115 % of control.

As to `O=c1oc2ccccc2c(O)c1-c1cccc2ccccc12`, the T/C is 91 % of control under setting [13], 103 % of control under setting [1] and 100 % of control under setting [2].

Take `N#CC(CC(=O)OCc1ccccc1)NC(=O)OCc1ccccc1` (centres undefined): the T/C reads like this: under setting [6], 86 % of control; under setting [9], 94 % of control.

Turning to `O=C1CC2CCC1C2` (centres undefined), the T/C (endpoint: mean survival time, dose: 25.0 mg/kg/injection, schedule: Q04DX003 (ip), vehicle: Klucel (hydroxypropylcellulose) (HPC)) is 97 % of control; the T/C (endpoint: mean survival time, dose: 50.0 mg/kg/injection, schedule: Q04DX003 (ip), vehicle: Klucel (hydroxypropylcellulose) (HPC)) is 98 % of control; the T/C under setting [15] was 97 % of control.

With `O=C(O)c1ccccc1C(=O)CC(O)(C(F)(F)F)C(F)(F)F`, the T/C by setting is: under setting [4], 101 % of control; under setting [6], 97 % of control; under setting [9], 102 % of control.

Turning to `COc1cc(-c2ccncc2)nc(OC)n1`, the T/C was 96 % of control under setting [10] and 88 % of control under setting [14].

With `Brc1ccc2c(c1)-c1ccccc1C2Br` (centres undefined), the T/C runs as follows: (endpoint: mean survival time, dose: 62.5 mg/kg/injection, schedule: Q04DX003 (ip), vehicle: saline with Tween-80) 107 % of control; (endpoint: mean survival time, dose: 125.0 mg/kg/injection, schedule: Q04DX003 (ip), vehicle: saline with Tween-80) 109 % of control; (endpoint: mean survival time, dose: 250.0 mg/kg/injection, schedule: Q04DX003 (ip), vehicle: saline with Tween-80) 98 % of control.
